In article PMC9465256, “Discovering monoacylglycerol lipase inhibitors by a combination of fluorogenic substrate assay and activity-based protein profiling” (Frontiers in Pharmacology, 2022):

Tested on: serine hydrolases labeled by FP-TAMRA in mouse brain membrane proteome
Assay: Competitive ABPP selectivity assay, mouse brain membrane proteome
Format: biochemical
Details: 100 µM, FP-TAMRA 250 nM
Method: Mouse brains were dounce homogenized lysis buffer (20 mM HEPES, 2 mM DTT, 1 mM MgCl2, 25 U/mL benzonase) and incubated on ice for 15 min, followed by low-speed spin (2,500 g, 3 min, 4 C) to remove debris. The supernatant was subjected to ultracentrifugation (100,000 g, 45 min, 4°C) to generate the cytosolic fraction in the supernatant, as well as the membrane fraction as a pellet. After removal of the soluble supernatant, the pellet was resuspended in storage buffer (20 mM HEPES, 2 mM DTT) by pipetting. Total protein concentrations in membrane and soluble fractions were determined using a Qubit protein assay (Invitrogen). The obtained samples were stored at −80°C until further use.
The competitive ABPP selectivity assay was performed according to the previously reported protocol. Briefly, mouse brain membrane proteome (2 mg/ml, 20 µl) was preincubated for 30 min with 0.5 µl of DMSO (vehicle) or inhibitor (100 μM, finial concentration). […] The reactions were then quenched by 10 µl sample buffer (×4). The obtained samples were directly loaded and resolved on SDS-PAGE gel (10% acrylamide). The gels were then scanned and analyzed using a ChemiDoc MP system (Cy3 settings, BioRad). All the samples were measured and duplicated.

C[C@H]1COC2=C1C(=O)C(=O)c1c2ccc2c1CCCC2(C)C [compound 23, Cryptotanshinone]
selectivity profile over serine hydrolases: broad-spectrum inhibitors that cross-reacted with multiple serine hydrolases
